Measured values published in paper PMC6409085, “Three odorant-binding proteins are involved in the behavioral response of Sogatella furcifera to rice plant volatiles” (PeerJ, 2019).
“And” between values parts separate entries of the source, which are not always exact repeats. Equal entries are not always repeated.

Legend:
S. furcifera adults = assay: Y-tube olfactometer behavioral trials; format: in vivo, Sogatella furcifera; conditions: odorant 50 µL/L vs hexane; adults
How it was run: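 Single S. furcifera adults (2 days post-emergence, starved 0.5 h) chose between odorant (100 µL of 50 µL/L on filter paper) and hexane control in a glass Y-tube, charcoal-filtered humidified air 300 mL/min per arm, 25 ± 1 °C, 50% RH. Choice scored if insect passed half an arm and stayed >1 min within 10 min; 45 insects per compound, chi-squared test.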

SfurOBP2 = SfurOBP2 (Sogatella furcifera, UniProt V5T759); assay: biochemical; format: binding
How it was run: (§1)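 1-NPN displacement assay with odorant competitor at 2–20 µM; protein and probe both 2.0 µM at pH 7.4. Ki is calculated from IC50 using the protein/1-NPN dissociation constant.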

SfurOBP11 = SfurOBP11 (Sogatella furcifera, UniProt V5T6E3); assay: biochemical; format: binding
How it was run: as §1

SfurOBP1 = SfurOBP1 (Sogatella furcifera, UniProt V5T8N5); assay: biochemical; format: binding; conditions: for Fluorescence competitive binding assay, fluorescence intensity: OBP1, three replicate columns
How it was run: as §1

SfurOBP3 = SfurOBP3 (Sogatella furcifera, UniProt V5T818); assay: biochemical; format: binding; conditions: for Fluorescence competitive binding assay, fluorescence intensity: OBP3, three replicate columns
How it was run: as §1

SfurOBP2, sequence (V5T759 entry or part of it): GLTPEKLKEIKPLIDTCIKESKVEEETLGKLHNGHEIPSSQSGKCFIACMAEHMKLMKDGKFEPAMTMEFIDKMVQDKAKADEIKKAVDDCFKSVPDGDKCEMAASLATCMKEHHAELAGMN
SfurOBP3, sequence (V5T818 entry or part of it): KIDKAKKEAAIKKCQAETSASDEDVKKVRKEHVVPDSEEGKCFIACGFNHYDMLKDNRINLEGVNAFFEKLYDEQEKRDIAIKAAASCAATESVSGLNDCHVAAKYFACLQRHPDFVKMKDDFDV
SfurOBP1, sequence (V5T8N5 entry or part of it): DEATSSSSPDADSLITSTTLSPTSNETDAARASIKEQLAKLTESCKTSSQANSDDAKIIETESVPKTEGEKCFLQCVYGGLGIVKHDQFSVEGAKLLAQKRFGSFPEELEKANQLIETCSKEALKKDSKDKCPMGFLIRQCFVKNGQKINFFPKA
SfurOBP11, sequence (V5T6E3 entry or part of it): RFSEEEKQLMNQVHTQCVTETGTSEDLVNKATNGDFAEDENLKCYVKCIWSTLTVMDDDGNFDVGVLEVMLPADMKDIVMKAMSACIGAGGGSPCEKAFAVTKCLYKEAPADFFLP

In the case of CC/C=C\CCO [(Z)-3-hexenol], the “number of insects choosing hexane arm” value (S. furcifera adults) is reported as 13, the “number of insects choosing volatilies arm” value (S. furcifera adults) is reported as 13 and the “number of insects failed (no choice)” value (S. furcifera adults) is reported as 14. The IC50 (SfurOBP2) was greater than 20 µM, the “Fluorescence competitive binding assay, OBP2 (raw fluorescence reading)” value (SfurOBP2; ligand concentration 2 (unit not given), replicate column 1 of 3) was 19770 and the “Fluorescence competitive binding assay, OBP2 (raw fluorescence reading)” value (SfurOBP2; ligand concentration 2 (unit not given), replicate column 2 of 3) was 19248. For the same compound, the “Fluorescence competitive binding assay, OBP2 (raw fluorescence reading)” value (SfurOBP2; ligand concentration 2 (unit not given), replicate column 3 of 3) was 18506, the “Fluorescence competitive binding assay, OBP2 (raw fluorescence reading)” value (SfurOBP2; ligand concentration 4 (unit not given), replicate column 1 of 3) was 19551 and the “Fluorescence competitive binding assay, OBP2 (raw fluorescence reading)” value (SfurOBP2; ligand concentration 4 (unit not given), replicate column 2 of 3) was 19781. For the same compound, the “Fluorescence competitive binding assay, OBP2 (raw fluorescence reading)” value (SfurOBP2; ligand concentration 4 (unit not given), replicate column 3 of 3) was 18404, the “Fluorescence competitive binding assay, OBP2 (raw fluorescence reading)” value (SfurOBP2; ligand concentration 6 (unit not given), replicate column 1 of 3) was 19561 and the “Fluorescence competitive binding assay, OBP2 (raw fluorescence reading)” value (SfurOBP2; ligand concentration 6 (unit not given), replicate column 2 of 3) was 18769. For the same compound, the “Fluorescence competitive binding assay, OBP2 (raw fluorescence reading)” value (SfurOBP2; ligand concentration 6 (unit not given), replicate column 3 of 3) was 17857, the “Fluorescence competitive binding assay, OBP2 (raw fluorescence reading)” value (SfurOBP2; ligand concentration 8 (unit not given), replicate column 1 of 3) was 18896 and the “Fluorescence competitive binding assay, OBP2 (raw fluorescence reading)” value (SfurOBP2; ligand concentration 8 (unit not given), replicate column 2 of 3) was 18816. For the same compound, the “Fluorescence competitive binding assay, OBP2 (raw fluorescence reading)” value (SfurOBP2; ligand concentration 8 (unit not given), replicate column 3 of 3) was 16878, the “Fluorescence competitive binding assay, OBP2 (raw fluorescence reading)” value (SfurOBP2; ligand concentration 10 (unit not given), replicate column 1 of 3) was 17416 and the “Fluorescence competitive binding assay, OBP2 (raw fluorescence reading)” value (SfurOBP2; ligand concentration 10 (unit not given), replicate column 2 of 3) was 17439. The “Fluorescence competitive binding assay, OBP2 (raw fluorescence reading)” value (SfurOBP2; ligand concentration 10 (unit not given), replicate column 3 of 3) was 16747, the “Fluorescence competitive binding assay, OBP2 (raw fluorescence reading)” value (SfurOBP2; ligand concentration 12 (unit not given), replicate column 1 of 3) was 16106 and the “Fluorescence competitive binding assay, OBP2 (raw fluorescence reading)” value (SfurOBP2; ligand concentration 12 (unit not given), replicate column 2 of 3) was 16534. For the same compound, the “Fluorescence competitive binding assay, OBP2 (raw fluorescence reading)” value (SfurOBP2; ligand concentration 12 (unit not given), replicate column 3 of 3) was 16305, the “Fluorescence competitive binding assay, OBP2 (raw fluorescence reading)” value (SfurOBP2; ligand concentration 14 (unit not given), replicate column 1 of 3) was 14820 and the “Fluorescence competitive binding assay, OBP2 (raw fluorescence reading)” value (SfurOBP2; ligand concentration 14 (unit not given), replicate column 2 of 3) was 14819. The “Fluorescence competitive binding assay, OBP2 (raw fluorescence reading)” value (SfurOBP2; ligand concentration 14 (unit not given), replicate column 3 of 3) was 14820, the “Fluorescence competitive binding assay, OBP2 (raw fluorescence reading)” value (SfurOBP2; ligand concentration 16 (unit not given), replicate column 1 of 3) was 13168 and the “Fluorescence competitive binding assay, OBP2 (raw fluorescence reading)” value (SfurOBP2; ligand concentration 16 (unit not given), replicate column 2 of 3) was 12294. For the same compound, the “Fluorescence competitive binding assay, OBP2 (raw fluorescence reading)” value (SfurOBP2; ligand concentration 16 (unit not given), replicate column 3 of 3) was 13106, the “Fluorescence competitive binding assay, OBP2 (raw fluorescence reading)” value (SfurOBP2; ligand concentration 18 (unit not given), replicate column 1 of 3) was 12788 and the “Fluorescence competitive binding assay, OBP2 (raw fluorescence reading)” value (SfurOBP2; ligand concentration 18 (unit not given), replicate column 2 of 3) was 12466. The “Fluorescence competitive binding assay, OBP2 (raw fluorescence reading)” value (SfurOBP2; ligand concentration 18 (unit not given), replicate column 3 of 3) was 12554, the “Fluorescence competitive binding assay, OBP2 (raw fluorescence reading)” value (SfurOBP2; ligand concentration 20 (unit not given), replicate column 1 of 3) was 12993 and the “Fluorescence competitive binding assay, OBP2 (raw fluorescence reading)” value (SfurOBP2; ligand concentration 20 (unit not given), replicate column 2 of 3) was 12815. The “Fluorescence competitive binding assay, OBP2 (raw fluorescence reading)” value (SfurOBP2; ligand concentration 20 (unit not given), replicate column 3 of 3) was 12410, the IC50 (SfurOBP11) was 19.7 µM and the “Fluorescence intensity, fluorescence competitive binding assay, OBP11” value (shortened to “Fluorescence intensity … OBP11”) (SfurOBP11; ligand concentration 2, replicate 1) was 23102. The “Fluorescence intensity … OBP11” value (SfurOBP11; ligand concentration 2, replicate 2) was 23122, the “Fluorescence intensity … OBP11” value (SfurOBP11; ligand concentration 2, replicate 3) was 23081 and the “Fluorescence intensity … OBP11” value (SfurOBP11; ligand concentration 4, replicate 1) was 21959. For the same compound, the “Fluorescence intensity … OBP11” value (SfurOBP11; ligand concentration 4, replicate 2) was 22135, the “Fluorescence intensity … OBP11” value (SfurOBP11; ligand concentration 4, replicate 3) was 21783 and the “Fluorescence intensity … OBP11” value (SfurOBP11; ligand concentration 6, replicate 1) was 21447. For the same compound, the “Fluorescence intensity … OBP11” value (SfurOBP11; ligand concentration 6, replicate 2) was 20794, the “Fluorescence intensity … OBP11” value (SfurOBP11; ligand concentration 6, replicate 3) was 21118 and the “Fluorescence intensity … OBP11” value (SfurOBP11; ligand concentration 8, replicate 1) was 18781. For the same compound, the “Fluorescence intensity … OBP11” value (SfurOBP11; ligand concentration 8, replicate 2) was 21016, the “Fluorescence intensity … OBP11” value (SfurOBP11; ligand concentration 8, replicate 3) was 21554 and the “Fluorescence intensity … OBP11” value (SfurOBP11; ligand concentration 10, replicate 1) was 18621. For the same compound, the “Fluorescence intensity … OBP11” value (SfurOBP11; ligand concentration 10, replicate 2) was 21154, the “Fluorescence intensity … OBP11” value (SfurOBP11; ligand concentration 10, replicate 3) was 19973 and the “Fluorescence intensity … OBP11” value (SfurOBP11; ligand concentration 12, replicate 1) was 17455. For the same compound, the “Fluorescence intensity … OBP11” value (SfurOBP11; ligand concentration 12, replicate 2) was 20348, the “Fluorescence intensity … OBP11” value (SfurOBP11; ligand concentration 12, replicate 3) was 19925 and the “Fluorescence intensity … OBP11” value (SfurOBP11; ligand concentration 14, replicate 1) was 17235. The “Fluorescence intensity … OBP11” value (SfurOBP11; ligand concentration 14, replicate 2) was 18458, the “Fluorescence intensity … OBP11” value (SfurOBP11; ligand concentration 14, replicate 3) was 18680 and the “Fluorescence intensity … OBP11” value (SfurOBP11; ligand concentration 16, replicate 1) was 16257. For the same compound, the “Fluorescence intensity … OBP11” value (SfurOBP11; ligand concentration 16, replicate 2) was 15961, the “Fluorescence intensity … OBP11” value (SfurOBP11; ligand concentration 16, replicate 3) was 16778 and the “Fluorescence intensity … OBP11” value (SfurOBP11; ligand concentration 18, replicate 1) was 15893. For the same compound, the “Fluorescence intensity … OBP11” value (SfurOBP11; ligand concentration 18, replicate 2) was 16090, the “Fluorescence intensity … OBP11” value (SfurOBP11; ligand concentration 18, replicate 3) was 15799 and the “Fluorescence intensity … OBP11” value (SfurOBP11; ligand concentration 20, replicate 1) was 15616. For the same compound, the “Fluorescence intensity … OBP11” value (SfurOBP11; ligand concentration 20, replicate 2) was 15707, the “Fluorescence intensity … OBP11” value (SfurOBP11; ligand concentration 20, replicate 3) was 14975 and the IC50 (SfurOBP1) was greater than 20 µM. For the same compound, the “Fluorescence competitive binding assay, fluorescence intensity” value (SfurOBP1; ligand concentration 2 (μM)) was 6275 and 5762 and 6097, the “Fluorescence competitive binding assay, fluorescence intensity” value (SfurOBP1; ligand concentration 4 (μM)) was 7853 and 8652 and 8403 and the “Fluorescence competitive binding assay, fluorescence intensity” value (SfurOBP1; ligand concentration 6 (μM)) was 6992 and 6382 and 6355. The “Fluorescence competitive binding assay, fluorescence intensity” value (SfurOBP1; ligand concentration 8 (μM)) was 6419 and 7196 and 6808, the “Fluorescence competitive binding assay, fluorescence intensity” value (SfurOBP1; ligand concentration 10 (μM)) was 6561 and 6490 and 6439 and the “Fluorescence competitive binding assay, fluorescence intensity” value (SfurOBP1; ligand concentration 12 (μM)) was 6242 and 6220 and 5811. For the same compound, the “Fluorescence competitive binding assay, fluorescence intensity” value (SfurOBP1; ligand concentration 14 (μM)) was 5437 and 6035 and 6831, the “Fluorescence competitive binding assay, fluorescence intensity” value (SfurOBP1; ligand concentration 16 (μM)) was 6974 and 6042 and 5510 and the “Fluorescence competitive binding assay, fluorescence intensity” value (SfurOBP1; ligand concentration 18 (μM)) was 6021 and 6159 and 6506. For the same compound, the “Fluorescence competitive binding assay, fluorescence intensity” value (SfurOBP1; ligand concentration 20 (μM)) was 6648 and 5435 and 5963, the IC50 (SfurOBP3) was greater than 20 µM and the “Fluorescence competitive binding assay, fluorescence intensity” value (SfurOBP3; ligand concentration 2) was 48626 and 49734 and 49512. For the same compound, the “Fluorescence competitive binding assay, fluorescence intensity” value (SfurOBP3; ligand concentration 4) was 45649 and 45958 and 42870, the “Fluorescence competitive binding assay, fluorescence intensity” value (SfurOBP3; ligand concentration 6) was 41915 and 48260 and 45013 and the “Fluorescence competitive binding assay, fluorescence intensity” value (SfurOBP3; ligand concentration 8) was 45442 and 45656 and 45548. The “Fluorescence competitive binding assay, fluorescence intensity” value (SfurOBP3; ligand concentration 10) was 40904 and 43831 and 42892, the “Fluorescence competitive binding assay, fluorescence intensity” value (SfurOBP3; ligand concentration 12) was 41218 and 40601 and 40113 and the “Fluorescence competitive binding assay, fluorescence intensity” value (SfurOBP3; ligand concentration 14) was 34957 and 35609 and 37985. The “Fluorescence competitive binding assay, fluorescence intensity” value (SfurOBP3; ligand concentration 16) was 33728 and 34170 and 34618, the “Fluorescence competitive binding assay, fluorescence intensity” value (SfurOBP3; ligand concentration 18) was 37828 and 32491 and 33581 and the “Fluorescence competitive binding assay, fluorescence intensity” value (SfurOBP3; ligand concentration 20) was 33910 and 32414 and 29949.
